Data taken from ChEMBL document CHEMBL1759980, “Aza-annulation on the 16-dehydropregnenolone, via tandem intermolecular aldol process and intramolecular Michael addition” (Bioorg Med Chem Lett, 2011).
pIC50: −log10 of the molar value.

Legend:
Dipeptidyl peptidase 4 [1] = biological target: T1, Dipeptidyl peptidase 4 (Homo sapiens, UniProt P27487); test: Inhibition of human DPP-4 assessed as cleavage of substrate using H-Gly-Pro-pNA chromogenic substrate at 10 uM after 10 mins by double beam spectrophotometer
Target sequence in this assay (P27487 whole entry, looked up): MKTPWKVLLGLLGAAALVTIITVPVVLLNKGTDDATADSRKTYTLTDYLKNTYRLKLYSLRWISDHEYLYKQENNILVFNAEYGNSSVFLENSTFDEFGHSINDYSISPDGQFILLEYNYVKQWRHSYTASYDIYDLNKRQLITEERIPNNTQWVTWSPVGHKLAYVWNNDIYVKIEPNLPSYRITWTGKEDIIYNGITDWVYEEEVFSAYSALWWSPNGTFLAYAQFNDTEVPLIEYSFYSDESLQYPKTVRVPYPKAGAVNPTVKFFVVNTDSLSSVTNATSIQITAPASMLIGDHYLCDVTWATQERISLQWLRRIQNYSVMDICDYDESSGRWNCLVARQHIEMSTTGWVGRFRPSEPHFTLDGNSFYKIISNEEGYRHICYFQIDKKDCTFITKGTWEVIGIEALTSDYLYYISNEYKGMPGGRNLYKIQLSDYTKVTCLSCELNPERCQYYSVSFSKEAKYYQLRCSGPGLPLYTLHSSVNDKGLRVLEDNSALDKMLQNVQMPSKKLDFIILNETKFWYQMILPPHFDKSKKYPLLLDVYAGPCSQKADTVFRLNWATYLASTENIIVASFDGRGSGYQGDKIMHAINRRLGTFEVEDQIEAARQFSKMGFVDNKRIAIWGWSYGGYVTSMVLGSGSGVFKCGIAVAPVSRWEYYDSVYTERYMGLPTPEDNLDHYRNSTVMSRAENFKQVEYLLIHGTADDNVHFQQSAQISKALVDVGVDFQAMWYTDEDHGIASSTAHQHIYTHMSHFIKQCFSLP

Dipeptidyl peptidase 4 [2] = biological target: T1, Dipeptidyl peptidase 4; test: Inhibition of human DPP-4 assessed as cleavage of substrate using H-Gly-Pro-pNA chromogenic substrate after 10 mins by double beam spectrophotometer
Target sequence in this assay (P27487 whole entry): as the sequence (P27487 whole entry, looked up) above

Row | SMILES | inhibition (Dipeptidyl peptidase 4 [1]) | pIC50 (Dipeptidyl peptidase 4 [2])
1 | CCCN1C(c2ccc(OC)cc2)CC(=O)[C@H]2C1C[C@H]1[C@@H]3CC=C4C[C@@H](O)CC[C@]4(C)[C@H]3CC[C@]21C (stereo not given in full) | 20.4% | 4.49
2 | CC(=O)O[C@H]1CC[C@@]2(C)C(=CC[C@@H]3[C@@H]2CC[C@]2(C)C(C(C)=O)=CC[C@@H]32)C1 | 17.3% | 4.45
3 | CCCN1C(c2ccc(C(C)C)cc2)CC(=O)[C@H]2C1C[C@H]1[C@@H]3CC=C4C[C@@H](O)CC[C@]4(C)[C@H]3CC[C@]21C (stereo not given in full) | 19.1% | 4.54

Stronger by pIC50 (Dipeptidyl peptidase 4 [2]), values ahead:

Row | inhibition (Dipeptidyl peptidase 4 [1]) | pIC50 (Dipeptidyl peptidase 4 [2]) | SMILES
4 | 28.4% | 4.67 | CC(=O)[C@H]1C(NCc2ccccc2)C[C@H]2[C@@H]3CC=C4C[C@@H](O)CC[C@]4(C)[C@H]3CC[C@]12C (stereo not given in full)
5 | 24.1% | 4.58 | COc1ccc(/C=C/C(=O)C2=CC[C@H]3[C@@H]4CC=C5C[C@@H](O)CC[C@]5(C)[C@H]4CC[C@]23C)cc1OC
